Assays:
[1] = system: SLAC/DB/DB obese mice; experiment: Blood glucose and blood lipid levels in DB/DB mice; type: in vivo; conditions: 30 mg/kg transdermally once per day
Procedure: HPCs in the present disclosure lowered blood glucose levels and blood lipid levels in mice models (SLAC/DB/DB, obese mice, n=7). 30 mg/kg of 8% diethylaminoethyl acetylsalicylate.HCl salt (P-1, in 25% ethanol); 4-acetamidophenyl salicylyldimethylaminobutyrate.HCl (P-6, in 25% ethanol), diethylaminoethyl 5-(2,4-difluorophenyl)acetylsalicylate.5-(2,4-difluorophenyl)acetylsalicylic acid salt (P-8, in 25% ethanol), diethylaminoethyl salicylsalicylate.HCl salt (P-9, in 25% ethanol), diethylaminoethyl salicylate.AcOH(P-10, in 25% ethanol), diethylaminoethyl 5-acetamido-acetylsalicylate.HCl(P-58, in 25% ethanol), diethylaminoethyl acetylsalicylsalicylate.HCl salt (P-59, in 25% ethanol), diethylaminoethyl acetylsalicylsalicylsalicylate.HCl salt (P-60, in 25% ethanol) were administered transdermally to the backs (4 cm^2,fur was shaved) of DB/DB mice(SLAC/DB/DB, 10-12 weeks old) once per day (at 8 am) for 5 weeks. The blood glucose levels were measured once per week and blood lipid levels were measured once every other week.

[2] = system: normal SD rats (SLAC/SD); experiment: Blood glucose in normal SD rats treated with HPCs of NSAIAs; type: in vivo; conditions: 30 mg/kg transdermally once per day, no fasting
Procedure: (§1) A HPC in the present disclosure lowered blood glucose levels in rat models (SLAC/GK, type 2 diabetes, n=7). 30 mg/kg of 8% diethylaminoethyl acetylsalicylate.HCl salt (P-1, in 25% ethanol); 4-acetamidophenyl salicylyldimethylaminobutyrate.HCl (P-6, in 25% ethanol), diethylaminoethyl 5-(2,4-difluorophenyl)acetylsalicylate.5-(2,4-difluorophenyl)acetylsalicylic acid salt (P-8, in 25% ethanol), diethylaminoethyl salicylsalicylate.HCl salt (P-9, in 25% ethanol), diethylaminoethyl salicylate.AcOH(P-10, in 25% ethanol), diethylaminoethyl 5-acetamido-acetylsalicylate.HCl(P-58, in 25% ethanol), diethylaminoethyl acetylsalicylsalicylate. HCl salt (P-59, in 25% ethanol), diethylaminoethyl acetylsalicylsalicylsalicylate. HCl salt (P-60, in 25% ethanol) were administered transdermally to the backs (6 cm^2, fur was shaved) of GK rats (SLAC/GK, 14-16 weeks old) and normal SD rats (SLAC/SD, 14-16 weeks old) once per day (at 8 am) for 6 weeks.
(§2) The blood glucose levels were measured once every 3 days at 4:30 pm (no fasting) from the third week to the sixth week as shown in Table 10a and 10b. […] Moreover, the blood glucose levels of the rats stayed at normal level (6-9 mmol/L, no fasting) after the treatment was stopped for 40 days.

[3] = system: GK rats (SLAC/GK, type 2 diabetes); experiment: Anti-diabetes (type II) activity of HPCs of NSAIAs in GK rats; type: in vivo; conditions: 30 mg/kg transdermally once per day, no fasting
Procedure: as §1, §2

[4] = system: SLAC:NOD-IDDM, type 1 diabetes; experiment: Anti-diabetes (type I) activity of HPCs of NSAIAs; type: in vivo, mice; conditions: for blood glucose, Baseline: equal to 20 mg/kg of NSAIAs transdermally twice per day for 7 weeks; for blood glucose, Average: fourth week to seventh week, no fasting, equal to 20 mg/kg of NSAIAs transdermally twice per day
Description: 10% aqueous solution of diethylaminoethyl acetylsalicylate.acetylsalicylic acid salt (P-1, […]); 4-acetamidophenyl salicylyldimethylaminobutyrate. HCl (P-6), diethylaminoethyl 5-(2,4-difluorophenyl)acetylsalicylate.5-(2,4-difluorophenyl)acetylsalicylic acid salt (P-8), diethylaminoethyl salicylsalicylate.AcOH(P-9), diethylaminoethyl 5-acetamido-acetylsalicylate. HCl (P-58), diethylaminoethyl 2-(ρ-isobutylphenyl) propionate.citric acid (P-59), diethylaminoethyl acetylsalicylsalicylate. acetylsalicylsalicylsalicylic acid salt (P-60) (equal to of 20 mg/kg of NSAIAs) were administered transdermally to the shaved back (about 1.5 cm^2) of mice twice per day (at 8 am and 5 pm) for 7 weeks.
The blood glucose levels were measured once every 3 days at 4:30 pm (no fasting) from the fourth week to the seventh week as shown in Table 11.

[5] = system: Human Gastric Cancer HGC-27 cell; experiment: HGC-27 cell proliferation, MTT assay; type: cell-based; conditions: Homo sapiens, HGC-27, 72 hours, read-out: HGC-27 cell growth inhibition rate
Procedure: The inhibition of cellular proliferation was measured by the modified dimethyl thiazolyl diphenyl tetrazolium salt (MTT) [3-(4,5-dimethylthiazol-2-yl)-2,5-diphenyltetrazolium bromide] assay, based on the ability of live cells to converting thiazolyl blue to dark blue formazan. Approximately 3500 cells of HGC-27 (in 100 μl culture solution) were seeded into 96-well culture plates and were cultured for 16 hours at 37° C. Different concentration solution (100 μl) of Taxol (positive control), chlorambucil, or N,N-diethylaminoethyl 4-[bis(2-chloroethyl)amino]benzenebutyrate.HCl salt (HPC of chlorambucil) were added and incubation continued for 72 hours at 37° C. Then MTT were added and incubation continued at 37° C. for 4 h, and 100 μl DMSO was pipetted to solubilize the formazan product for 30 min at room temperature. The absorbency at 570 nm was measured using Bio-Rad micro-plate reader […].

[6] = system: human myeloma cell line implanted into mice; experiment: Survival and weight loss of myeloma mice (Example 111); type: in vivo; conditions: orally; for Weight Loss: day 21; for Life Elongation Rate / None Disease Rate / Survival Period: n=7
Description: A human myeloma cell line derived from the ascites of a patient with multiple myeloma was implanted into mice. The mice was divided into 11 groups: control group (A, orally), melphalan (B1 and B2, orally), chlorambucil (C1 and C2, orally), N,N-diethylaminoethyl 4-[bis(2-chloroethyl)amino]benzenebutyrate.HBr (D1 and D2, transdermally), 4-[bis(2-chloroethyl)amino]-N-acetyl-L-phenylalanine N,N-diethylaminoethyl ester hydrobromide (E1 and E2, transdermally in 5% aqueous solution), and diethylaminoethyl 4-[bis(2-methylsulfonylethyl)amino]benzenebutyrate.HCl (F1 and F2, transdermally in 5% aqueous solution). The body weight loss of mice was determined on day 21.

[7] = system: human myeloma cell line implanted into mice; experiment: Survival of mice with multiple myeloma (Example 110, Study B); type: in vivo; conditions: n=5
Procedure: Study B: For evaluation of antitumor activity, a human myeloma cell line derived from the ascites of a patient with multiple myeloma was implanted into mice. The experiment was carried out on 17 groups of mice. Control group (A, orally), chlorambucil (group B1: 1 mg/kg, orally, group B2, 3 mg/kg, orally, group B3:1 mg/kg, transdermally, and group B4: 3 mg/kg, transdermally), melphalan (group C1: 1 mg/kg, orally, group C2, 3 mg/kg, orally, group C3:1 mg/kg, transdermally, and group C4: 3 mg/kg, transdermally), N,N-diethylaminoethyl 4-[bis(2-chloroethyl)amino]benzenebutyrate.HBr (the HPC of chlorambucil (group D1: 1 mg/kg, orally, group D2, 3 mg/kg, orally, group D3:1 mg/kg, transdermally, and group D4: 3 mg/kg, transdermally), and 4-[bis(2-chloroethyl)amino]-N-acetyl-L-phenylalanine N,N-diethylaminoethyl ester hydrobromide (the HPC of melphalan) (group E1: 1 mg/kg, orally, group E2, 3 mg/kg, orally, group E3:1 mg/kg, transdermally, and group E4: 3 mg/kg, transdermally).

`CC(=O)O.CCN(CC)CCOC(=O)c1ccccc1O` [P-10, diethylaminoethyl salicylate.AcOH] was tested, and the “Cholesterol (total), Day 1” value [1] was 6.8 ± 0.4 mmol/L, the “Cholesterol (total), Week 5” value [1] was 4.7 ± 0.5 mmol/L and the “Triglycerides, Day 1” value [1] was 4.8 ± 0.9 mmol/L. For the same molecule, the “Triglycerides, Week 5” value [1] was 2.3 ± 0.3 mmol/L, the “blood glucose, Day 1” value [1] was 15.1 ± 3.7 mmol/L and the “blood glucose, Week 5” value [1] was 9.2 ± 2.3 mmol/L. For the same molecule, the “blood glucose, Average (Week 2-5)” value [2] was 5.7 ± 1.3 mmol/L, the “blood glucose, Day 1” value [2] was 5.8 ± 1.2 mmol/L and the “blood glucose, Average (Week 2-5)” value [3] was 9.1 ± 2.2 mmol/L. The “blood glucose, Day 1” value [3] was 16.7 ± 3.2 mmol/L, the “blood glucose, Baseline” value [4] was 18.8 ± 3.4 mmol/L and the “blood glucose, Average” value [4] was 8.6 ± 1.8 mmol/L.

Work on `O=C(O)CCCc1ccc(N(CCCl)CCCl)cc1` [chlorambucil, reference compound] yielded an inhibition at 0.5 µM ([5]; 0.5 μM) of 0.3%, an inhibition at 2 µM ([5]; 2.0 μM) of 1.6% and an inhibition at 5 µM ([5]; 5.0 μM) of 12.5%. The inhibition at 25 µM ([5]; 25 μM) was 31.5%, the inhibition at 50 µM ([5]; 50 μM) was 39.4% and the inhibition at 75 µM ([5]; 75 μM) was 41.5%. For the same molecule, the inhibition at 100 µM ([5]; 100 μM) was 53.1%, the inhibition at 200 µM ([5]; 200 μM) was 62.1% and the inhibition at 500 µM ([5]; 500 μM) was 81%. The “Weight Loss” value ([6]; 1.5 mg/kg per day) was 10%, the “Life Elongation Rate” value ([6]; 1.5 mg/kg per day) was 126% and the “None Disease Rate” value ([6]; 1.5 mg/kg per day) was 2/7. The “Survival Period” value ([6]; 1.5 mg/kg per day) was 54.8 ± 5.5 days, the “Weight Loss” value ([6]; 3 mg/kg per day) was 17% and the “Life Elongation Rate” value ([6]; 3 mg/kg per day) was 200%. The “None Disease Rate” value ([6]; 3 mg/kg per day) was 3/7, the “Survival Period” value ([6]; 3 mg/kg per day) was 87.2 ± 6.9 days and the “Life Elongation Rate” value ([7]; 1 mg/kg per day, orally) was 107%. For the same molecule, the “Survival Period” value ([7]; 1 mg/kg per day, orally) was 48.7 ± 5.3 days, the “Life Elongation Rate” value ([7]; 1 mg/kg per day, transdermally) was 99% and the “Survival Period” value ([7]; 1 mg/kg per day, transdermally) was 46.1 ± 3.6 days. For the same molecule, the “Life Elongation Rate” value ([7]; 3 mg/kg per day, orally) was 151%, the “Survival Period” value ([7]; 3 mg/kg per day, orally) was 68.5 ± 4.2 days and the “Life Elongation Rate” value ([7]; 3 mg/kg per day, transdermally) was 98%. The “Survival Period” value ([7]; 3 mg/kg per day, transdermally) was 44.6 ± 3.6 days.

For `CCN(CC)CCOC(=O)c1ccccc1OC(=O)c1ccccc1OC(=O)c1ccccc1OC(C)=O.Cl` [P-60, diethylaminoethyl acetylsalicylsalicylsalicylate. HCl salt], the “Cholesterol (total), Day 1” value [1] was 7.0 ± 0.8 mmol/L, the “Cholesterol (total), Week 5” value [1] was 5.0 ± 0.4 mmol/L and the “Triglycerides, Day 1” value [1] was 4.3 ± 0.5 mmol/L. The “Triglycerides, Week 5” value [1] was 4.3 ± 0.5 mmol/L, the “blood glucose, Day 1” value [1] was 14.8 ± 2.7 mmol/L and the “blood glucose, Week 5” value [1] was 9.0 ± 2.1 mmol/L. For the same molecule, the “blood glucose, Average (Week 2-5)” value [2] was 5.7 ± 1.1 mmol/L, the “blood glucose, Day 1” value [2] was 5.6 ± 1.3 mmol/L and the “blood glucose, Average (Week 2-5)” value [3] was 9.3 ± 2.9 mmol/L. For the same molecule, the “blood glucose, Day 1” value [3] was 15.9 ± 2.8 mmol/L, the “blood glucose, Baseline” value [4] was 17.5 ± 3.3 mmol/L and the “blood glucose, Average” value [4] was 8.8 ± 1.9 mmol/L.

Source: patent US11541029B2, “High penetration compositions and their applications” (Techfields Pharma Co., Ltd., priority 2008, dated 2023)
